# Laboratory results: patent US20230226227A1, “PROSTATE SPECIFIC MEMBRANE ANTIGEN (PSMA) LIGANDS AND USES THEREOF” (ADVANCED ACCELERATOR APPLICATIONS (ITALY) SRL, priority 2019, published 2023)
# Entries after “also recorded” stand apart in the source; their conditions may differ.
# Columns and labels:
# [1] = Plasma protein binding by ultrafiltration, mouse plasma; format: in vitro ADME
# Method: (§1) Plasma protein binding of PSMA-R2 and ^175Lu-PSMA-R2 has been determined by ultrafiltration method, after incubation of the compounds in human, mouse, rat and minipig plasma at two different concentrations: 1 and 5 µg/mL.
# [2] = Plasma protein binding by ultrafiltration, minipig plasma; format: in vitro ADME
# Method: as §1
# [3] = Effects on cardiovascular function of the conscious telemetered minipig; format: in vivo; conditions: iv 0.058, 0.175, 0.58 mg/kg
# Method: The purpose of this study was to investigate the potential effects of ^175Lu-PSMA-R2 on the cardiovascular functions of the conscious telemetered male minipig following intravenous administration at doses of 0.058, 0.175 and 0.583 mg/kg.
# The test item or vehicle was administered intravenously into the external auricular vein at a fixed injection rate of 4 mL/min. The dose was administered to each animal at a dose volume of 1 mL/kg body weight.
# At 7-day intervals, each animal received the vehicle or one of the three doses of the test item, following the crossover design described in Table 4.
# Systolic, diastolic and mean blood pressure (SBP, DBP and MBP), heart rate (HR), body temperature and Lead II electrocardiogram were recorded continuously, from 1 hour before administration up to 24 h after dosing. Haemodynamic and electrocardiographic data were reported at pre-dose and at 5, 15, 30 minutes and 1, 2, 4, 8 and 24 hours post-dose.
# [4] = Single dose toxicity study in the minipig; format: in vivo, Göttingen minipigs
# Description: A two-week treatment-free period was allowed after administration.
# All animals were administrated intravenously. Plasma samples were collected at Day 1 for toxicokinetic analysis.
# Mortality, clinical signs, body weight, food consumption, clinical pathology investigations, ophthalmoscopy, ECG evaluations, and macroscopic observations were indexed at necropsy. Then selected organs were weighed and tissues collected.
# In addition, plasma samples were collected on Day 1 for toxicokinetic analysis.
# [5] = Repeated dose (2 weeks) toxicity and toxicokinetic study in the rat
# Method: The purpose of this study was to investigate the toxicity of ^175Lu-PSMA-R2 in rats after daily intravenous administration for 2 weeks and recovery from any treatment related effects during a 2-week recovery period (main groups).
# The tested doses were 0.13, 0.39 and 1.29 mg/kg/day, that is about 31, 93 and 310 times the PSMA-R2 anticipated human dose.
# Each main treatment group consisted of 10 male and 10 female rats. There were additional 5 male and 5 females included to be sacrificed after 2 weeks of recovery in groups 1 and 4. Two satellite groups (low and mid- dose) for toxicokinetics had 9 male and 9 female animals and one group (high dose) included 12 male and 12 female animals. One additional group (control) comprised 3 male and 3 female animals.
# In this study, the toxicity and the toxicokinetic profile of ^175Lu-PSMA-R2 were investigated in Sprague Dawley rats after daily intravenous administration for 2 weeks at the dosages of 0.13, 0.39 and 1.29 mg/kg/day.
# [6] = Plasma protein binding by ultrafiltration, human plasma; format: in vitro ADME; conditions: for fu (%) fraction unbound: human plasma
# Method: as §1
# [7] = Behavioral Irwin test after single intravenous administration; format: in vivo, rat
# Method: The aim of this study was to evaluate the possible effects of ^175Lu-PSMA-R2, at doses of 0.2, 0.6 and 2.0 mg/kg, on general behavior parameters in the rat after intravenous administration, according to the study design in Table 2.
# The following parameters were evaluated: mortality, body weight, clinical signs and Irwin test.
# The Irwin test was performed at the following intervals after dosing: 5, 15, 30 minutes and 1, 2 and 24 hours.
# [8] = Single dose toxicity study in the rat; format: in vivo, Sprague Dawley (SD) rats
# Method: This study aimed at assessing the toxicity of ^175Lu-PSMA-R2 right after acute intravenous injection of 2 or 4 mg/kg among Sprague Dawley (SD) rats.
# Two groups of 30 animals (1:1 male:female ratio) were administered with 2 and 4 mg/kg, respectively. A control group of equal characteristics was treated with the vehicle (Table 5).
# Signs of reaction to treatment at all doses were assessed at 30, 120 and 240 min p.i. as well as 24 h later. At Day 2, 10 rats per gender and per group were sacrificed. The remaining 5 animals/gender/group were observed daily over14 days.
# Body weight was recorded on the day of treatment group allocation, Day 1 (day of injection), 8 and 15. Food consumption was measured on Day 2 and weekly thereafter. At the end of treatment, urine samples were collected for urinalysis. On Day 2 and 15, blood samples withdrawn at sacrifice were screened for clinical pathologies. After dissection, organs were weighted and tissues were treated for microscopic analyses (over 50 different tissues were analyzed).
# [9] = Plasma protein binding by ultrafiltration, rat plasma; format: in vitro ADME
# Method: as §1
# [10] = test system: Escherichia coli WP2 uvrA; experiment: Bacterial mutation assay, Escherichia coli; format: cell-based
# Method: The test item ^175Lu-labelled PSMA-R2 solution was examined for the ability to induce gene mutations in tester strains of Salmonella typhimurium and Escherichia coli, as measured by reversion of auxotrophic strains to prototrophy. The five tester strains TA1535, TA1537, TA98, TA100 and WP2 uvrA were used. Experiments were performed both in the absence and presence of metabolic activation, using liver S9 fraction from rats pre-treated with phenobarbital and 5,6-benzoflavone.
# The test item was used as a solution in sodium acetate buffer and all concentrations in this report are expressed in terms of active ingredient. The test item ^175Lu-labelled PSMA-R2 solution was assayed in the toxicity test at a maximum feasible concentration of 1000 µg/plate and at four lower concentrations spaced at approximately half-log intervals: 316, 100, 31.6 and 10.0 µg/plate.
# On the basis of the results obtained in the preliminary toxicity test, in the Main Assay, using the plate incorporation method, the test item was assayed with all tester strains at the following dose levels: 1000, 500, 250, 125 and 62.5 µg/plate. […] Since a clear negative result was obtained, no further experiment was undertaken.
# [11] = single iv 0.175, 0.58, 1.75 mg/kg
structure (smiles),measurement,setting,value
O=C(O)CCC(NC(=O)NC(CCCCN(Cc1ccc(Br)cc1)C(=O)CCCCCNC(=O)CN1CCN(CC(=O)O)CCN(CC(=O)O)CCN(CC(=O)O)CC1)C(=O)O)C(=O)O.[175Lu] (stereo not drawn) [^175Lu-PSMA-R2],fu (%) fraction unbound,[1]; 1 µg/mL,71.1 ± 4.4%
same,fu (%) fraction unbound,[1]; 5 µg/mL,71.0 ± 2.2%
same,fu (%) fraction unbound,[2]; 1 µg/mL,41.1 ± 4.2%
same,fu (%) fraction unbound,[2]; 5 µg/mL,46.1 ± 12.5%
same,"Changes in heart rate, arterial blood pressure or electrocardiographic activity",[3],"No relevant changes in heart rate, arterial blood pressure or electrocardiographic activity were observed at the tested doses in conscious mini pigs."
same,Hematology and clinical chemistry,[4]; high dose group (1.75 mg/kg),Some changes in hematology and clinical chemistry were observed in some animals
same,"Organ weights, macroscopic or microscopic changes",[4]; [11],No changes in the organ weights and no treatment-related macroscopic or microscopic changes
same,"Physical signs, ocular findings, electrocardiographic abnormalities",[4]; [11],"No treatment-related physical signs, ocular findings, nor electrocardiographic abnormalities"
same,Toxicity signs,"[4]; single iv 0.175, 0.583 and 1.75 mg/kg",did not induce signs of toxicity; also recorded: No relevant treatment-related toxicity signs
same,Accumulation after daily administration,[5]; Day 1 to Day 14,No accumulation
same,Half-life,[5]; both sexes and all dose levels,24 to 48 min
same,NOAEL (No Observed Adverse Effect Level),[5]; daily iv for 2 weeks,1.29 mg/kg/day
same,Toxic / treatment-related effects in treated groups compared to controls,[5]; daily iv for 2 weeks,No evidence of treatment-related effects
same,Bodyweight and food consumption,"[5]; rat, in vivo",unaffected by treatment
same,"Clearance, dose dependence","[5]; rat, in vivo",dose-independent
same,Clinical pathology examination,"[5]; rat, in vivo",No findings of toxicological relevance
same,Daily clinical observation,"[5]; rat, in vivo",No signs of toxicological significance
same,Dose proportionality of exposure,"[5]; rat, in vivo",approximately dose proportional
same,NOAEL as multiple of the foreseen human dose,"[5]; rat, in vivo",310 times
same,"Necropsy, organ weights or histopathological examination","[5]; rat, in vivo",No evidence of treatment-related effects
same,Ophthalmoscopy examination,"[5]; rat, in vivo",No anomalies related to treatment
same,Toxic / treatment-related effects in treated groups compared to controls,"[5]; rat, in vivo, iv",no toxic effects
same,fu (%) fraction unbound,[6]; 1 µg/mL,43.9± 5.1%
same,fu (%) fraction unbound,[6]; 5 µg/mL,45.0 ± 9.6%
same,"Plasma protein binding, assessment in words","[6]; human, plasma",non-highly bound
same,Clinical signs,[7]; 6-day observation period,No clinical signs were observed
same,Mortality,"[7]; single iv 0.2, 0.6 and 2.0 mg/kg",No deaths occurred
same,"Effects on behavioral, neurologic or autonomic parameters (Irwin)","[7]; single iv 0.2, 0.6 and 2.0 mg/kg, up to 24 h post-dose",did not induce any effects; also recorded: No effects
same,Mortality,"[8]; high dose (4 mg/kg), 30 min after dosing, no cause of death established",One death
same,Clinical signs immediately after dosing,"[8]; high dose group, dead animal and 5 other animals",Only decreased activity was noted
same,Toxicity signs,[8]; single iv 2 and 4 mg/kg,did not induce toxicity signs; also recorded: No signs of toxicity observed
same,fu (%) fraction unbound,[9]; 1 µg/mL,37.4 ± 4.9%
same,fu (%) fraction unbound,[9]; 5 µg/mL,59.8 ± 4.4%
same,"Toxicity and revertant numbers, preliminary toxicity test","[10]; 10.0-1000 µg/plate, absence or presence of S9","Neither toxicity, nor relevant increases in revertant numbers"
same,"Toxicity and revertant numbers, Main Assay (plate incorporation)","[10]; 62.5-1000 µg/plate, absence or presence of S9","Neither toxicity, nor relevant increases in revertant numbers"
same,Induction of reverse mutation (conclusion),[10]; absence or presence of S9 metabolism,does not induce reverse mutation
